The nature of the data set: gradient 5% acetonitrile 3 min, to 50% in 2 min, to 85% in 15 min, held 3 min, 100 µL/min. The following applies: column: Zorbax Extend-C18 2.1 x 50 mm; eluents: water / acetonitrile, 0.1% formic acid. The essentials:
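Pure standards were analyzed in mixtures of ~100 molecules using HPLC coupled to a quadrupole time-of-flight mass spectrometer, in both positive and negative ionization mode. Separation used a Zorbax Extend-C18 column (2.1 × 50 mm, 1.8 μm) at 100 μL/min, with water and acetonitrile each containing 0.1% formic acid. Dead and dwell volumes were 40 μL and 900 μL, and data were collected over 3 months. Retention time was read from computationally picked adduct peaks, each inspected manually.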
`O=C(NCc1ccccc1F)c1c(O)c2cccnc2n(-c2cccc(F)c2)c1=O`: the RP-LC retention time came out at 1170 s.
With `CCCC(NC(=O)C1CCCN(c2nc3c(s2)c(C)nn3-c2ccc(C)cc2)C1)c1cccs1` (stereo not drawn) the figure was 1300 s.
The figure for `Cc1ccn2cc(-c3cccc(S(=O)(=O)N4CC(C)CC(C)C4)c3)nc2c1` (stereo not drawn) is 784 s.
The figure for `Cc1cc2c(cc1S(=O)(=O)N1CCCC1C(=O)NC1CCCC1)OCC(=O)N2` (stereo not drawn) is 718 s; for `O=C(CN1C(=O)C(C(=O)N2CCCC2)Sc2ccccc21)N1CCN(c2ccccc2)CC1` (stereo not drawn) it is 842 s.
`O=C(CN1CCC2(CC1)N=C(c1ccccc1)C(=O)N2)Nc1cccc(Br)c1`: the RP-LC retention time was 687 s.
`CSc1ccc(-c2nc3cc(C)ccn3c2Nc2ccc3c(c2)OCO3)cc1`: the RP-LC retention time was 748 s.
The figure for `O=C(c1csc(S(=O)(=O)N2CCC(C(=O)N3CCc4ccccc4C3)CC2)c1)N1CCCC1` is 817 s; for `CCOC(=O)c1sc(NC(=O)C(CC)Sc2nc(C)cc(C)n2)nc1C` (stereo not drawn) it is 1080 s.
As to `Cc1ccc(-c2nc3nc(C)cc(N(C)CCO)n3n2)cc1`, the RP-LC retention time came to 638 s.
In turn, `CNC(=O)N1CCc2c(c(-c3nc(-c4cccc(F)c4)no3)nn2C)C1` had an RP-LC retention time of 738 s.
With `CC1CCN(C(=O)C2CCc3sc(C(=O)N4CCOCC4)cc3C2)CC1` (stereo not drawn) the figure was 776 s; with `Cc1[nH]c(C(=O)N2CCN(c3cccc(Cl)c3)CC2)c(C)c1S(=O)(=O)N1CCC(C)CC1`, 1090 s; with `O=C(NCCCn1cccc1)c1ccno1`, 644 s.
The figure for `COC(=O)c1cccc(NC(=O)NC(C)C(=O)N2CCc3ccccc32)c1` (stereo not drawn) is 792 s; for `Cn1ccc(C(=O)N2CCCC2c2ccc(Cl)cc2)n1` (stereo not drawn) it is 824 s.
With `CC(=O)Nc1ccc(NC(=O)C2CCCN(c3nc4ccccc4nc3C(F)(F)F)C2)cc1` (stereo not drawn) the figure was 910 s; with `Cc1ccc(S(=O)(=O)C(F)(F)F)cc1N1C(=O)c2ccccc2C1=O`, 942 s; with `COc1ccc(-c2csc(Nc3ccc(S(=O)(=O)Nc4nc(C)cc(C)n4)cc3)n2)cc1C`, 966 s.
In the case of `CCn1c(C(=O)NCCC(C)C)cc2c(=O)oc3ccccc3c21`, the RP-LC retention time was 751 s.
The figure for `COCCN1C(=O)c2ccccc2C(C(=O)Nc2cc(C)ccn2)C12CCCCC2` (stereo not drawn) is 745 s; for `CCC1Oc2ccc(S(=O)(=O)N3CCC(C(=O)N(CC)Cc4ccccc4)CC3)cc2NC1=O` (stereo not drawn) it is 924 s.
With `CCN(CC)C(=O)CSc1c(C)cnc2c1c(=O)n(C)c(=O)n2C` the figure was 752 s; with `CCC(C(=O)Nc1cc(-c2cn3cccnc3n2)ccc1C)c1ccccc1` (stereo not drawn), 680 s.
The figure for `Cc1cc(N2CCCCC2)n2nc(CN3CCN(c4ccccc4F)CC3)nc2n1` is 673 s; for `COc1cccc(S(=O)(=O)N2CCC3(CC2)c2nccn2CCN3C)c1` it is 607 s; for `CCCCC(=O)N1C[C@H](c2nc(-c3ccccc3)no2)[C@@H](C)C1` it is 971 s.
In the case of `CCn1cc(CCNC(C)=O)c2cccnc21`, the RP-LC retention time turned out to be 561 s.
`Cc1ccc(OCc2nn3c(-c4ccoc4C)nnc3s2)cc1C` displayed an RP-LC retention time of 1090 s.
`CN1C(=O)c2cc(C(=O)N3CCN(c4ncccn4)CC3)nn2CC1(C)C(=O)NC1CCCCCC1` (stereo not drawn) registered an RP-LC retention time of 742 s.
`Cc1sc(C)c(S(=O)(=O)N2CCN(c3ccc(F)cc3)CC2)c1-c1cc(C(F)(F)F)on1` gave an RP-LC retention time of 1270 s.
With `Cc1cnc(C(=O)NC2C[C@H]3CC[C@@H](C2)N3S(=O)(=O)c2c(C)noc2C)cn1` (stereo partly drawn) the figure was 726 s; with `O=C(NCc1cccs1)C1CCCN(c2nc3ccsc3c(=O)n2Cc2ccc(F)cc2)C1` (stereo not drawn), 899 s.
On to `CC(C)n1cc(S(=O)(=O)NCc2ccccc2C(F)(F)F)c2cccnc21`, for which the RP-LC retention time turned out to be 977 s.
For `Cn1cc(CCNC(=O)Nc2ccc3c(c2)OCCO3)c2cccnc21`, the RP-LC retention time was determined as 639 s.
The figure for `Cn1c(N2CCN(C(=O)Cc3ccccc3Cl)CC2)cc(=O)n(C)c1=O` is 732 s.
With `CCN(CC)c1nc(NC)nc(-n2cnc(SC)n2)n1` the figure was 897 s; with `O=C1c2ccccc2C(=O)N1CCCCN(C(=O)c1cccs1)c1ccc(F)cc1F`, 951 s.
In turn, `CCCn1cc(C2=CCN(C(=O)NCc3ccc(OC)cc3)CC2)c2cccnc21` displayed an RP-LC retention time of 888 s.
The figure for `Cc1ccc2c(Nc3ccc(C)c(C)c3)c(C(=O)N3CCC(C)CC3)cnc2n1` is 681 s; for `O=C1CCCc2c1cc(C(=O)NCc1ccccn1)c(=O)n2-c1ccc(F)cc1` it is 630 s.
With `Cc1ccc(CNC(=O)CNS(=O)(=O)c2cc(-c3noc(C)n3)sc2C)cc1` the figure was 847 s; with `CCn1cc(-c2nc(C(=O)NCc3cccc(F)c3)cs2)c2cccnc21`, 983 s; with `O=C(N[C@H]1C[C@@H]2C[C@H]1N(C(=O)c1ccco1)C2)c1ccccc1`, 671 s.
With `CCC(=O)N1CCc2cc(N3CC(C(=O)NCc4ccco4)CC3=O)ccc21` (stereo not drawn) the figure was 667 s.
Molecule `CC(C)CN1C(=O)c2ccccc2C(C(=O)NCCCN2CCCC2=O)C1c1cccs1` (stereo not drawn) displayed an RP-LC retention time of 740 s.
`O=C(Nc1nnc(-c2ccncc2)o1)c1cc(=O)c2ccccc2o1` came in with an RP-LC retention time of 600 s.
In turn, `CCCN(CC(=O)N1CCc2sccc2C1COc1ccc(F)cc1)C(=O)NCC` (stereo not drawn) gave an RP-LC retention time of 859 s.
For the molecule `Cc1ccc(CNC(=O)C2CCN(S(=O)(=O)c3cc(-c4noc(C)n4)sc3C)CC2)o1`, the RP-LC retention time stood at 906 s.
As to `O=C(Nc1ccccc1Cl)C(=O)c1cn(CC(=O)N2CCOCC2)c2ccccc12`, the RP-LC retention time was determined as 1040 s.
Take `COCCN1C(=O)CCc2cc(NS(=O)(=O)c3cc(C)ccc3C)ccc21`: the RP-LC retention time amounted to 1060 s.
With `O=C(Cn1nc(C(=O)N2CCCC2)c2ccccc21)NCc1cccs1` the figure was 753 s; with `O=c1c2ccccc2n(Cc2nc(-c3ccccc3)no2)c(=O)n1Cc1ccco1`, 1050 s; with `COc1cccc(N2CCN(S(=O)(=O)c3cn(C(C)C)c4ncccc34)CC2)c1`, 1060 s.
With `O=C1[C@H]2CN(Cc3ccc(Cl)cc3)C[C@H]2C(=O)N1CCN1CCc2ccccc2C1` the figure was 740 s.
With `O=C(C1=CN(c2ccccc2)c2cc(F)ccc2S1(=O)=O)N1CCCCC1` the figure was 882 s; with `Cc1cc(NC(=O)N2CCC(CN3CCCC(C)C3)CC2)ccc1Br` (stereo not drawn), 682 s; with `CCn1nccc1C(=O)N1CCC2(CC1)N=C(c1ccc(C)cc1)NO2`, 734 s.
For `CC(C)(N)C(=O)N[C@H](COCc1ccccc1)C(=O)N1CCC2(CC1)CN(S(C)(=O)=O)c1ccccc12`, the RP-LC retention time amounted to 777 s.
The figure for `CCCN(CCC)C1COc2cccc(OC)c2C1` (stereo not drawn) is 722 s; for `CC1CCN(S(=O)(=O)N2CCCC(C(=O)Nc3ccccc3C(=O)c3ccccc3)C2)CC1` (stereo not drawn) it is 963 s.
The figure for `COc1cc(OC)cc(-c2nnc(Cc3nc(-c4ccccc4)no3)o2)c1` is 1020 s; for `CCC1CCCCN1c1cc(SCC(=O)Nc2ccc(N(C)C)cc2)ncn1` (stereo not drawn) it is 709 s.
Regarding `CCOc1ccccc1-c1csc(NC(=O)Cc2csc(COc3cc(C)ccc3C)n2)n1`, the RP-LC retention time was 1360 s.
With `CCCCN(C)C(=O)Cn1cncc(-c2nc(-c3ccccc3)cs2)c1=O` the figure was 946 s; with `CCOC(=O)N1CCN(C(=O)Cc2c(C)nn(-c3nc(-c4ccccc4)cs3)c2C)CC1`, 998 s; with `O=C(Cn1nc2nc(N3CCCC3)ccn2c1=O)Nc1ccc(F)c(Cl)c1`, 708 s.
With `CCCCN(C(=O)c1ccc(S(=O)(=O)N2CCOCC2)cc1)C1CCS(=O)(=O)C1` (stereo not drawn) the figure was 687 s; with `Cc1ccc2c(c1)N(S(C)(=O)=O)CCC(C(=O)Nc1cccc(OC(C)C)c1)O2` (stereo not drawn), 893 s; with `CCOC(=O)C1CCCN(C(=O)CCC(=O)N2CCCn3nc(-c4cn(C)c5ccccc45)cc32)C1` (stereo not drawn), 803 s.
The figure for `O=C(NCCN1CCOCC1)c1cc2cc(Cl)ccc2o1` is 558 s; for `COc1cccc(CNC(=O)C2CCCN(c3ccc(-c4nc(C)no4)cn3)C2)c1OC` (stereo not drawn) it is 753 s; for `CCc1ccccc1NC(=O)N1CCc2nc(-c3ccccc3)ncc2C1` it is 924 s.
With `O=C(NCCCN1CCCC1=O)c1ccc2nc(Cc3ccccc3)oc2c1`, the RP-LC retention time was found to be 731 s.
The figure for `Cc1ccccc1S(=O)(=O)N1CCCN(c2ccc(=O)n(-c3ccccc3)n2)CC1` is 859 s; for `CCC(=O)N1CCc2sc(S(=O)(=O)NCc3ccc4c(c3)OCO4)cc2C1` it is 773 s; for `CCN(CC)C(=O)CSc1nnc(-c2ccc3c(c2)OCCCO3)n1C(C)C` it is 770 s.
On to `O=S(=O)(NC1CCCCC1)c1ccc(-c2cc(C(F)(F)F)on2)o1`, for which the RP-LC retention time is 1120 s.

For the origin of these results see the METLIN SMRT retention time set (Domingo-Almenara et al. 2019).
